ChEMBL document CHEMBL1201862, “PubChem BioAssay data set” (2004)
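Five compound concentrations were applied to cells in 96-well plates for 48 hours; endpoints were derived by simple linear interpolation of the resulting dose-response curve. Abbreviation: GI50, concentration required for 50% inhibition of growth.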 Activity calls are given as the source filed them. No stated cut-off is given here; in the data, active = GI50 up to about 1.1 µM and inactive = higher.

Legend:
Test in all cases: NCI anticancer screen, dose series, 48 h
[1] = test system: SK-MEL-28
[2] = test system: ACHN
[3] = test system: HOP-92
[4] = test system: SF-295
[5] = test system: UO-31
[6] = test system: LOX IMVI
[7] = test system: RPMI-8226
[8] = test system: CCRF-CEM
[9] = test system: NCI-H522
[10] = test system: SF-268
[11] = test system: SNB-75
[12] = test system: SK-OV-3
[13] = test system: 786-0
[14] = test system: TK-10
[15] = test system: RXF 393
[16] = test system: HCT-116
[17] = test system: NCI-H23
[18] = test system: COLO 205
[19] = test system: HOP-62

Measured: GI50

COC1(OC)c2ccccc2C2(O)c3ccccc3C(=O)C12 (centres undefined)
inactive: [1] > 100 µM | [2] 34.1 µM | [3] 46.6 µM | [4] 54 µM | [5] 16.4 µM | [6] 44.7 µM | [7] 5.79 µM | [8] 22.5 µM | [9] 10.2 µM | [10] > 100 µM | [11] 29.3 µM | [12] 70.1 µM | [13] 52.6 µM | [14] 37.3 µM | [15] > 100 µM | [16] 70.8 µM | [17] 47.4 µM | [18] 13.4 µM

CC1=NN2C(c3ccc(C)cc3)=CSC2=NC(C)(C)C1
inactive: [1] > 100 µM | [2] > 100 µM | [3] > 100 µM | [4] > 100 µM | [5] > 100 µM | [6] > 100 µM | [7] > 100 µM | [8] > 100 µM | [9] > 100 µM | [10] > 100 µM | [11] > 100 µM | [12] > 100 µM | [19] > 100 µM | [13] > 100 µM | [14] > 100 µM | [15] > 100 µM | [16] > 100 µM | [17] > 100 µM | [18] > 100 µM

CCN(C(C)=N)c1ccccc1
inactive: [1] 68.4 µM | [2] 61.5 µM | [3] 60.4 µM | [4] 43.5 µM | [5] 39 µM | [6] > 100 µM | [7] 27 µM | [8] > 100 µM | [9] 50.2 µM | [10] > 100 µM | [11] 37.5 µM | [12] > 100 µM | [19] 66.4 µM | [13] > 100 µM | [14] > 100 µM | [15] > 100 µM | [16] 48.9 µM | [17] 54.8 µM | [18] > 100 µM

Nc1ccc(C(=O)N/C(=C\c2ccc3c(c2)OCO3)c2nc3ccc4c(c3[nH]2)C(=O)c2ccccc2C4=O)cc1
inactive: [1] 33.1 µM | [2] 13.9 µM | [3] 17.5 µM | [4] 41.7 µM | [5] 2.64 µM | [6] 26.1 µM | [7] 3.68 µM | [8] 2.26 µM | [9] 6.75 µM | [10] 12.4 µM | [11] 19.9 µM | [12] 23.1 µM | [19] 36.8 µM | [13] 21.2 µM | [14] 23.1 µM | [15] 10.5 µM | [16] 23.8 µM | [17] 14.4 µM | [18] 52.6 µM

O=C(NN1C(=O)CS(=O)(=O)C1c1cccc(F)c1)c1ccncc1 (centres undefined)
inactive: [1] > 100 µM | [2] > 100 µM | [3] > 100 µM | [4] > 100 µM | [6] > 100 µM | [7] > 100 µM | [9] > 100 µM | [10] > 100 µM | [11] 83.8 µM | [12] > 100 µM | [19] > 100 µM | [13] > 100 µM | [14] > 100 µM | [15] > 100 µM | [16] > 100 µM | [17] > 10 µM | [18] > 100 µM

Cc1ccc(S(=O)(=O)N/N=C(\C(=O)Nc2cccc([N+](=O)[O-])c2)c2nc3ccc([N+](=O)[O-])cc3nc2O)cc1
inactive: [1] > 100 µM | [2] 13.8 µM | [3] > 100 µM | [4] 29 µM | [5] 9.33 µM | [6] 10.4 µM | [7] 54.7 µM | [8] 7.64 µM | [9] 5.66 µM | [10] 48.5 µM | [12] > 100 µM | [19] 81.8 µM | [13] 61.9 µM | [15] > 100 µM | [16] 27.5 µM | [17] 72.4 µM | [18] 28.2 µM

CCCCCCCCCCCCC/C=C1\C[C@H](O)COC1=O
inactive: [1] 16.2 µM | [2] 15.9 µM | [3] 11.6 µM | [4] 18.1 µM | [5] 18.6 µM | [7] 17.5 µM | [8] 14.3 µM | [9] 17.1 µM | [10] 20.4 µM | [11] 15.9 µM | [12] 20.8 µM | [19] 16.6 µM | [13] 16 µM | [14] 17.6 µM | [15] 20 µM | [16] 15.9 µM | [17] 20.4 µM

COC(=O)C1=C(C(=O)OC)C2=S(SC3=C2CCCC3)S1 (centres undefined)
inactive: [1] 29.7 µM | [2] 28.1 µM | [3] 6.05 µM | [4] 46.1 µM | [5] 68.1 µM | [6] 2.79 µM | [7] 3.26 µM | [8] 2.98 µM | [9] 2.2 µM | [10] 37.6 µM | [11] 12.1 µM | [12] > 100 µM | [19] > 100 µM | [13] 4.11 µM | [14] 30.1 µM | [15] 13.3 µM | [17] 24.1 µM | [18] 23.4 µM

COc1cc2c(cc1O)C(C)Cc1cc3c(cc1N(C)CC2)OCO3 (centres undefined)
inactive: [1] 6.22 µM | [2] 6.85 µM | [3] 4.66 µM | [4] 2.78 µM | [5] 6.41 µM | [6] 5.68 µM | [7] 4.09 µM | [8] 4.59 µM | [9] 2.18 µM | [10] 5.3 µM | [11] 2.45 µM | [12] 3.32 µM | [19] 10.6 µM | [13] 4.35 µM | [14] 27.3 µM | [15] 1.77 µM | [16] 4.04 µM | [17] 4.07 µM | [18] 24.2 µM

COc1ccc(C(=O)OC2C=COC(C)C2OC(=O)c2ccc(OC)cc2)cc1 (centres undefined)
inactive: [1] 16.4 µM | [2] 42.4 µM | [3] 17.5 µM | [4] 33.2 µM | [5] 45.4 µM | [6] 14.7 µM | [7] 8.22 µM | [8] 7 µM | [9] 16.5 µM | [10] 15.8 µM | [11] 12.4 µM | [12] > 100 µM | [19] > 83.6 µM | [13] 28.8 µM | [14] 52.6 µM | [15] 14.6 µM | [16] 10.2 µM | [17] 16.4 µM | [18] 42.8 µM

CC1OC(n2ccc3ccc([N+](=O)[O-])cc32)C(O)C(O)C1O (centres undefined)
inactive: [1] > 100 µM | [2] > 100 µM | [3] > 100 µM | [4] > 100 µM | [5] > 100 µM | [6] > 100 µM | [7] > 100 µM | [8] > 100 µM | [9] > 100 µM | [10] > 100 µM | [11] > 100 µM | [12] > 100 µM | [19] > 100 µM | [13] > 100 µM | [14] > 100 µM | [15] > 100 µM | [16] > 100 µM | [17] > 100 µM | [18] > 100 µM

[O-]/[N+](=C\c1ccccc1)[C@H](COCc1ccccc1)c1ccccc1
inactive: [1] > 100 µM | [2] 66.4 µM | [3] 24.8 µM | [4] 36 µM | [5] 24.2 µM | [6] > 100 µM | [7] 30.2 µM | [8] 50.6 µM | [9] 29.5 µM | [10] 55.2 µM | [11] 74.3 µM | [12] > 100 µM | [19] > 100 µM | [13] > 100 µM | [14] > 100 µM | [15] 36.6 µM | [16] 40.8 µM | [17] 4.45 µM | [18] > 100 µM

CC1=CCC[C@@]2(C)C(CC[C@@H]2C(C)/C=C/C(C)C)c2ccc(cc2C(=O)O)C[C@@H](O)CC1 (some centres undefined)
inactive: [1] 14.7 µM | [2] 6.37 µM | [3] 14.4 µM | [4] 9.27 µM | [5] 15.7 µM | [6] 4.55 µM | [7] 3.63 µM | [8] 5.09 µM | [9] 13.5 µM | [10] 14.2 µM | [11] 13.8 µM | [12] 18.1 µM | [19] 20 µM | [13] 14.6 µM | [14] 12.5 µM | [15] 15.9 µM | [16] 5.21 µM | [17] > 10 µM

CN(C)CCNC(=O)c1cccc2nc3c(Cl)cccc3nc12
inactive: [1] 4.7 µM | [2] 3.13 µM | [3] 2.84 µM | [4] 4.8 µM | [5] 8.05 µM | [6] 3.14 µM | [7] 4.23 µM | [9] 14.3 µM | [11] 7.48 µM | [12] 17.3 µM | [19] 5.66 µM | [13] 7.98 µM | [14] 4.09 µM | [15] 3.4 µM | [16] 3.16 µM | [17] 5.61 µM | [18] 3.75 µM

COC(=O)[C@@]1(O)CC(C)C=C1C=O (some centres undefined)
inactive: [1] > 100 µM | [2] > 100 µM | [3] > 100 µM | [4] > 100 µM | [5] > 100 µM | [6] 53.5 µM | [7] > 100 µM | [8] 25.3 µM | [9] 20 µM | [10] 43.2 µM | [11] > 100 µM | [12] > 100 µM | [19] > 100 µM | [13] 60.5 µM | [14] > 100 µM | [15] 15.8 µM | [16] 20.8 µM | [17] > 100 µM | [18] > 100 µM
